Laboratory results: patent US20260327204A1, “DEGRADERS OF CYCLIN-DEPENDENT KINASE 12/13, COMPOSITIONS, AND USES THEREOF” (ZHEJIANG UNIVERSITY, priority 2023, published 2026)
Where two headings read alike, the source gives them in different places.

Columns and labels:
CDK12 = CDK12 (Homo sapiens, UniProt Q9NYV4); assay: Western blot degradation of CDK12 (Example 3); assay type: cell-based; parameters: degradation of CDK12/13 protein in leukemia cells KASUMI-1, MV4-11, and Jurkat; endogenous in cells
CDK12, sequence (Q9NYV4 whole entry): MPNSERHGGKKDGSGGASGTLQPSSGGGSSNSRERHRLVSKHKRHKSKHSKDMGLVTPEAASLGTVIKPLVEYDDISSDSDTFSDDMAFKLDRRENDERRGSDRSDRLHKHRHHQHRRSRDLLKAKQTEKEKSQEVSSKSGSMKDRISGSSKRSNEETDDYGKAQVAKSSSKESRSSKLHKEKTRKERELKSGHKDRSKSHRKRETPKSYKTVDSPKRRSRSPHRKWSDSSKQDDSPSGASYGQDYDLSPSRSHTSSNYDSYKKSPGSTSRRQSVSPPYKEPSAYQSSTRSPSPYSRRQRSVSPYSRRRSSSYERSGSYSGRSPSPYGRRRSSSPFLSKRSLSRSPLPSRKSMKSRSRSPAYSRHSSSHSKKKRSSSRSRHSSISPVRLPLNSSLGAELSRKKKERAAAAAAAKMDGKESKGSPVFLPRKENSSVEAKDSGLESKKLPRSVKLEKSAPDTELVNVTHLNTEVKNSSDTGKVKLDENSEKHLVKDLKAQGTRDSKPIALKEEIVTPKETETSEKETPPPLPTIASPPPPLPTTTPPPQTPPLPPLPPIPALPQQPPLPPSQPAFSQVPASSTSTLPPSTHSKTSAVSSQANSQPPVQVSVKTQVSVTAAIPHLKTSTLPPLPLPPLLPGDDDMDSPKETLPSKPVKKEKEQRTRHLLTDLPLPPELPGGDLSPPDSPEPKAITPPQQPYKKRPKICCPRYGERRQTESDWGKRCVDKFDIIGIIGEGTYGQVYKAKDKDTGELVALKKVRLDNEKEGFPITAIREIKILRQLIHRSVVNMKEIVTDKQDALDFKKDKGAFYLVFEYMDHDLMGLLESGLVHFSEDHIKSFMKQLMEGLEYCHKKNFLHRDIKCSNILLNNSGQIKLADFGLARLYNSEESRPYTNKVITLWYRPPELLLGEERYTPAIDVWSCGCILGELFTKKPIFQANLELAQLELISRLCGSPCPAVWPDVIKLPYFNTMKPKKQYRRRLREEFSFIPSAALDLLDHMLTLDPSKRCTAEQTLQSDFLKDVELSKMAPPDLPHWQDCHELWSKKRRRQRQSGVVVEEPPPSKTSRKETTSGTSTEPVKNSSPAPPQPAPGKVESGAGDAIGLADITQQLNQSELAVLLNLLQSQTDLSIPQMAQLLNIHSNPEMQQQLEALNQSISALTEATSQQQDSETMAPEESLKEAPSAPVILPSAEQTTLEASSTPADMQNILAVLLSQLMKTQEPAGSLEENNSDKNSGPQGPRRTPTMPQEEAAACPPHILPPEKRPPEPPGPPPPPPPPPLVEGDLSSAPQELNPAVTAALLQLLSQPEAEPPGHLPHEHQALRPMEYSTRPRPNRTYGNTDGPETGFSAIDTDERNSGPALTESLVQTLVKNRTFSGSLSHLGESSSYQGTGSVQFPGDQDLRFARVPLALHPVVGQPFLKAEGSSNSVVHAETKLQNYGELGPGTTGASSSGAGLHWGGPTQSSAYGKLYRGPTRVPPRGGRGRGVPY
CDK12, sequence (O75909 whole entry partner): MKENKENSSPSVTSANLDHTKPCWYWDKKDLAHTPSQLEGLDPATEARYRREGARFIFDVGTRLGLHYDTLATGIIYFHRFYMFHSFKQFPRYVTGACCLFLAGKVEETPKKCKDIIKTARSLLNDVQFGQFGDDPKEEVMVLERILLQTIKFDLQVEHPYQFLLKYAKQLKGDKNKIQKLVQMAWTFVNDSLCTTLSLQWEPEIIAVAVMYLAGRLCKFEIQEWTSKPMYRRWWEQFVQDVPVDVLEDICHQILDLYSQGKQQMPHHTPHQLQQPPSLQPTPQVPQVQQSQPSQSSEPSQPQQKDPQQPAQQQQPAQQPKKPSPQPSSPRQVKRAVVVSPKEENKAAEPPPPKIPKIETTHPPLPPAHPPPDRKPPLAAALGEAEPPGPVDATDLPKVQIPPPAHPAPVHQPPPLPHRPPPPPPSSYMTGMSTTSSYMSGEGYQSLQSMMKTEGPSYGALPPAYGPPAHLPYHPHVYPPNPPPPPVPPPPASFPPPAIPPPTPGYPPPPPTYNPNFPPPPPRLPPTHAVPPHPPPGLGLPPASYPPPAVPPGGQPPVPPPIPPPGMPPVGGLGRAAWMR

CDK13 = CDK13 (Homo sapiens, UniProt Q14004); assay: Western blot degradation of CDK13 (Example 3); assay type: cell-based; parameters: degradation of CDK12/13 protein in leukemia cells KASUMI-1, MV4-11, and Jurkat; endogenous in cells
CDK13, sequence (Q14004 whole entry): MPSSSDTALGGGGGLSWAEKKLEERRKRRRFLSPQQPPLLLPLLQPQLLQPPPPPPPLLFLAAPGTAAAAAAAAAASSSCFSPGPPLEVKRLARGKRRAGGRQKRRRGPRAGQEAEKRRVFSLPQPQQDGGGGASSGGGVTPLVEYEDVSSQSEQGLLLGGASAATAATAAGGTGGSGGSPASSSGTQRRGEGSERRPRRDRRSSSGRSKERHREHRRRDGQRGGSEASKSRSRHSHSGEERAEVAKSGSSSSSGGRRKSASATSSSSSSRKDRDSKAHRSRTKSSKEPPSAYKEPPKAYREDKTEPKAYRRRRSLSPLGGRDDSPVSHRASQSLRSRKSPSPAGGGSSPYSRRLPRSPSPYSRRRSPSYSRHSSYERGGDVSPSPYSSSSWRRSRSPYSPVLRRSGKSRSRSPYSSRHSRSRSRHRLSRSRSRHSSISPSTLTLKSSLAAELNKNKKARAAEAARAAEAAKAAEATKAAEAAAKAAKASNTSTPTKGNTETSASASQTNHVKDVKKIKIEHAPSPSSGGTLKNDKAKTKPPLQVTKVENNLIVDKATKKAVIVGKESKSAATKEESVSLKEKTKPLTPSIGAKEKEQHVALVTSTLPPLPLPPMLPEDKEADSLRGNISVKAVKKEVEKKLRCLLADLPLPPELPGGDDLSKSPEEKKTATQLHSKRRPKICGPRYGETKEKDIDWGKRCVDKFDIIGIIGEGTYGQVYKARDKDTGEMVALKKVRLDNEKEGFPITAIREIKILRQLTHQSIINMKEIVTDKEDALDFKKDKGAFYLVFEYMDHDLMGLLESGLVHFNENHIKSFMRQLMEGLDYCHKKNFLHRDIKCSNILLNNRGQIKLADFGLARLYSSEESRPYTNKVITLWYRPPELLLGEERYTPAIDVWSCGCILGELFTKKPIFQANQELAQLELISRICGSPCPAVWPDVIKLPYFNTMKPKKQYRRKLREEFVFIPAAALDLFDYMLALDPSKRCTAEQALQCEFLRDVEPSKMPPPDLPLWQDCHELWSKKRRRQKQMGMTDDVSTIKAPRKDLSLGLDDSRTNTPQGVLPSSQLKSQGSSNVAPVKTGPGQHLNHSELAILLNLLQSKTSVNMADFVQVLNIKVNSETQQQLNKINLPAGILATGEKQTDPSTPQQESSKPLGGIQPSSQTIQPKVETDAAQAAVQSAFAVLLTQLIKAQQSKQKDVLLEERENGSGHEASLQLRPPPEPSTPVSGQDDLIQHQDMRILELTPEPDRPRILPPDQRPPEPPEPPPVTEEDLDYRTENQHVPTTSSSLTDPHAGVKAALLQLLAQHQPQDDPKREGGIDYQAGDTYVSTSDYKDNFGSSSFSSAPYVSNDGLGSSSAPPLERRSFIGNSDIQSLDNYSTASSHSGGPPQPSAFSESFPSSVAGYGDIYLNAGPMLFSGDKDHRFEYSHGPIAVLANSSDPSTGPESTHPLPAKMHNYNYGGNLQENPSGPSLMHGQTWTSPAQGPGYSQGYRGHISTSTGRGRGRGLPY
CDK13, sequence (O75909 whole entry partner): as the sequence (O75909 whole entry partner) above

[1] = DC50 classes; cell line not given; read-out: CDK12 degradation Activity
[2] = DC50 classes; cell line not given; read-out: CDK13 degradation Activity
[3] = DC50 classes; cell line not given

| SMILES | DC50 (CDK12; [1]) [nM] | DC50 (CDK13; [2]) [nM] | further results |
| --- | --- | --- | --- |
| CC(=O)N(c1ccc(-c2cnc(OC3CCN(CC(=O)N[C@H](C(=O)N4C[C@H](O)C[C@H]4C(=O)N[C@@H](C)c4ccc(-c5scnc5C)cc4)C(C)(C)C)CC3)nc2)cc1)[C@H]1CC[C@H](Nc2ncc3ccccc3n2)CC1 [Formula 136, (2S,4R)-1-((S)-3,3-dimethyl-2-(2-(4-((5-(4-(N-((1R,4R)-4-(quinazolin-2-ylamino)cyclohexyl)acetamido)phenyl)pyrimidin-2-yl)oxy)piperidin-1-yl)acetamido)butanoyl)-4-hydroxy-N—((S)-1-(4-(4-methylthiazol-5-yl)phenyl)ethyl)pyrrolidine-2-carboxamide] | 500 to 1000 | 500 to 1000 |  |
| CC(=O)N(c1ccc(-c2ccc(N3CCC(C(=O)N[C@H](C(=O)N4C[C@H](O)C[C@H]4C(=O)N[C@@H](C)c4ccc(-c5scnc5C)cc4)C(C)(C)C)CC3)nc2)cc1)[C@H]1CC[C@H](Nc2ncc3ccccc3n2)CC1 [Formula 137, N—((S)-1-((2S,4R)-4-hydroxy-2-(((S)-1-(4-(4-methylthiazol-5-yl)phenyl)ethyl)carbamoyl)pyrrolidin-1-yl)-3,3-dimethyl-1-oxobutan-2-yl)-1-(5-(4-(N-((1R,4R)-4-(quinazolin-2-ylamino)cyclohexyl)acetamido)phenyl)pyridin-2-yl)piperidine-4-carboxamide] | 3000 to 10000 | 3000 to 10000 |  |
| CC(=O)N(c1ccc(-c2cnc(N3CCC(C(=O)N[C@H](C(=O)N4C[C@H](O)C[C@H]4C(=O)N[C@@H](C)c4ccc(-c5scnc5C)cc4)C(C)(C)C)CC3)nc2)cc1)[C@H]1CC[C@H](Nc2ncc3ccccc3n2)CC1 [Formula 138, N—((S)-1-((2S,4R)-4-hydroxy-2-(((S)-1-(4-(4-methylthiazol-5-yl)phenyl)ethyl)carbamoyl)pyrrolidin-1-yl)-3,3-dimethyl-1-oxobutan-2-yl)-1-(5-(4-(N-((1R,4R)-4-(quinazolin-2-ylamino)cyclohexyl)acetamido)phenyl)pyrimidin-2-yl)piperidine-4-carboxamide] | 1000 to 3000 |  | CDK13 degradation Activity (CDK13; [3]): − |
| CC(=O)N(c1ccc(-c2cnn(C3CCN(CC(=O)N[C@H](C(=O)N4C[C@H](O)C[C@H]4C(=O)N[C@@H](C)c4ccc(-c5scnc5C)cc4)C(C)(C)C)CC3)c2)cc1)[C@H]1CC[C@H](Nc2ncc3ccccc3n2)CC1 [Formula 139] | 1000 to 3000 | 1000 to 3000 |  |
| CC(=O)N(c1ccc(-c2ccc(N3C[C@@H]4C[C@H]3CN4CC(=O)N[C@H](C(=O)N3C[C@H](O)C[C@H]3C(=O)N[C@@H](C)c3ccc(-c4scnc4C)cc3)C(C)(C)C)nc2)cc1)[C@H]1CC[C@H](Nc2ncc3ccccc3n2)CC1 [Formula 141, (2S,4R)-1-((S)-3,3-dimethyl-2-(2-((1S,4S)-5-(5-(4-(N-((1R,4S)-4-(quinazolin-2-ylamino)cyclohexyl)acetamido)phenyl)pyridin-2-yl)-2,5-diazabicyclo[2.2.1]heptan-2-yl)acetamido)butanoyl)-4-hydroxy-N—((S)-1-(4-(4-methylthiazol-5-yl)phenyl)ethyl)pyrrolidine-2-carboxamide] | < 100 | 100 to 500 |  |
| CC(=O)N(c1ccc(-c2cnc(N3C[C@@H]4C[C@H]3CN4CC(=O)N[C@H](C(=O)N3C[C@H](O)C[C@H]3C(=O)N[C@@H](C)c3ccc(-c4scnc4C)cc3)C(C)(C)C)nc2)cc1)[C@H]1CC[C@H](Nc2ncc3ccccc3n2)CC1 [Formula 142, (2S,4R)-1-((S)-3,3-dimethyl-2-(2-((1S,4S)-5-(5-(4-(N-((1R,4S)-4-(quinazolin-2-ylamino)cyclohexyl)acetamido)phenyl)pyrimidin-2-yl)-2,5-diazabicyclo[2.2.1]heptan-2-yl)acetamido)butanoyl)-4-hydroxy-N—((S)-1-(4-(4-methylthiazol-5-yl)phenyl)ethyl)pyrrolidine-2-carboxamide] | < 100 | < 100 |  |
| CC(=O)N(c1ccc(-c2ccc(N3C[C@H]4C[C@@H]3CN4CC(=O)N[C@H](C(=O)N3C[C@H](O)C[C@H]3C(=O)N[C@@H](C)c3ccc(-c4scnc4C)cc3)C(C)(C)C)nc2)cc1)[C@H]1CC[C@H](Nc2ncc3ccccc3n2)CC1 [Formula 143, (2S,4R)-1-((S)-3,3-dimethyl-2-(2-((1R,4R)-5-(5-(4-(N-((1R,4S)-4-(quinazolin-2-ylamino)cyclohexyl)acetamido)phenyl)pyridin-2-yl)-2,5-diazabicyclo[2.2.1]heptan-2-yl)acetamido)butanoyl)-4-hydroxy-N—((S)-1-(4-(4-methylthiazol-5-yl)phenyl)ethyl)pyrrolidine-2-carboxamide] | 100 to 500 | 100 to 500 |  |
| CC(=O)N(c1ccc(-c2cnc(N3C[C@H]4C[C@@H]3CN4CC(=O)N[C@H](C(=O)N3C[C@H](O)C[C@H]3C(=O)N[C@@H](C)c3ccc(-c4scnc4C)cc3)C(C)(C)C)nc2)cc1)[C@H]1CC[C@H](Nc2ncc3ccccc3n2)CC1 [Formula 144, (2S,4R)-1-((S)-3,3-dimethyl-2-(2-((1R,4R)-5-(5-(4-(N-((1r,4S)-4-(quinazolin-2-ylamino)cyclohexyl)acetamido)phenyl)pyrimidin-2-yl)-2,5-diazabicyclo[2.2.1]heptan-2-yl)acetamido)butanoyl)-4-hydroxy-N—((S)-1-(4-(4-methylthiazol-5-yl)phenyl)ethyl)pyrrolidine-2-carboxamide] | < 100 | 100 to 500 |  |
| CC(=O)N(c1ccc(-c2ccc(N3CCN(C(=O)N[C@H](C(=O)N4C[C@H](O)CC4C(=O)N[C@@H](C)c4ccc(-c5scnc5C)cc4)C(C)(C)C)CC3)nc2)cc1)[C@H]1CC[C@H](Nc2ncc3ccccc3n2)CC1 (stereo partly drawn) [Formula 145] |  | 3000 to 10000 | CDK12 degradation Activity (CDK12; [3]): − |
| CC(=O)N(c1ccc(-c2cnc(N3CCN(C(=O)N[C@H](C(=O)N4C[C@H](O)C[C@H]4C(=O)N[C@@H](C)c4ccc(-c5scnc5C)cc4)C(C)(C)C)CC3)nc2)cc1)[C@H]1CC[C@H](Nc2ncc3ccccc3n2)CC1 [Formula 146, N—((S)-1-((2S,4R)-4-hydroxy-2-(((S)-1-(4-(4-methylthiazol-5-yl)phenyl)ethyl)carbamoyl)pyrrolidin-1-yl)-3,3-dimethyl-1-oxobutan-2-yl)-4-(5-(4-(N-((1R,4R)-4-(quinazolin-2-ylamino)cyclohexyl)acetamido)phenyl)pyrimidin-2-yl)piperazine-1-carboxamide] | 3000 to 10000 | 3000 to 10000 |  |
| CC(=O)N(c1ccc(-c2cnc(N3CCN(CC(=O)N[C@H](C(=O)N4C[C@H](O)C[C@H]4C(=O)N[C@@H](C)c4ccc(-c5scnc5C)cc4)C(C)(C)C)CC3)nc2)cc1)[C@H]1CC[C@H](Nc2ncc3ccccc3n2)CC1 [Formula 148, (2S,4R)-1-((S)-3,3-dimethyl-2-(2-(4-(5-(4-(N-((1R,4R)-4-(quinazolin-2-ylamino)cyclohexyl)acetamido)phenyl)pyrimidin-2-yl)piperazin-1-yl)acetamido)butanoyl)-4-hydroxy-N—((S)-1-(4-(4-methylthiazol-5-yl)phenyl)ethyl)pyrrolidine-2-carboxamide] | < 100 | < 100 |  |
| CC(=O)N(c1ccc(-c2ccc3c(c2)CCN(CC(=O)N[C@H](C(=O)N2C[C@H](O)C[C@H]2C(=O)N[C@@H](C)c2ccc(-c4scnc4C)cc2)C(C)(C)C)C3)cc1)[C@H]1CC[C@H](Nc2ncc3ccccc3n2)CC1 [Formula 149, (2S,4R)-1-((S)-3,3-dimethyl-2-(2-(6-(4-(N-((1R,4R)-4-(quinazolin-2-ylamino)cyclohexyl)acetamido)phenyl)-3,4-dihydroisoquinolin-2(1H)-yl)acetamido)butanoyl)-4-hydroxy-N—((S)-1-(4-(4-methylthiazol-5-yl)phenyl)ethyl)pyrrolidine-2-carboxamide] | 500 to 1000 | 1000 to 3000 |  |
| CC(=O)N(c1ccc(-c2ccc(N3CCN(Cc4cnn([C@H](C(=O)N5C[C@H](O)C[C@H]5C(=O)N[C@@H](C)c5ccc(-c6scnc6C)cc5)C(C)C)c4)CC3)nc2)cc1)C1CCC(Nc2ncc3ccccc3n2)CC1 (stereo partly drawn) [Formula 151, (2S,4R)-4-hydroxy-1-((S)-3-methyl-2-(4-((4-(5-(4-(N-((1R,4R)-4-(quinazolin-2-ylamino)cyclohexyl)acetamido)phenyl)pyridin-2-yl)piperazin-1-yl)methyl)-1H-pyrazol-1-yl)butanoyl)-N—((S)-1-(4-(4-methylthiazol-5-yl)phenyl)ethyl)pyrrolidine-2-carboxamide] |  |  | DC50 (CDK12; read-out: CDK12 degradation Activity; DC50 classes; cell line not given): 500 to 1000 nM; DC50 (CDK13; read-out: CDK13 degradation Activity; DC50 classes; cell line not given): 100 to 500 nM |
| CC(=O)N(c1ccc(-c2ccc(N3CCN(c4cnn([C@H](C(=O)N5C[C@H](O)C[C@H]5C(=O)N[C@@H](C)c5ccc(-c6scnc6C)cc5)C(C)C)c4)CC3)nc2)cc1)[C@H]1CC[C@H](Nc2ncc3ccccc3n2)CC1 [Formula 152, (2S,4R)-4-hydroxy-1-((S)-3-methyl-2-(4-(4-(5-(4-(N-((1R,4R)-4-(quinazolin-2-ylamino)cyclohexyl)acetamido)phenyl)pyridin-2-yl)piperazin-1-yl)-1H-pyrazol-1-yl)butanoyl)-N—((S)-1-(4-(4-methylthiazol-5-yl)phenyl)ethyl)pyrrolidine-2-carboxamide] | 100 to 500 | 100 to 500 |  |
| CC(=O)N(c1ccc(-c2cnc(N3CCN(Cc4cnn([C@H](C(=O)N5C[C@H](O)C[C@H]5C(=O)N[C@@H](C)c5ccc(-c6scnc6C)cc5)C(C)C)c4)CC3)nc2)cc1)[C@H]1CC[C@H](Nc2ncc3ccccc3n2)CC1 [Formula 153, (2S,4R)-4-hydroxy-1-((S)-3-methyl-2-(4-((4-(5-(4-(N-((1R,4R)-4-(quinazolin-2-ylamino)cyclohexyl)acetamido)phenyl)pyrimidin-2-yl)piperazin-1-yl)methyl)-1H-pyrazol-1-yl)butanoyl)-N—((S)-1-(4-(4-methylthiazol-5-yl)phenyl)ethyl)pyrrolidine-2-carboxamide] | 100 to 500 | < 100 |  |
